Data: patent publication US4837204A, “Functionalized peptidyl aminodiols and -triols” (Abbott Laboratories, priority 1988, dated 1989)

Target: T1, human renal renin (Homo sapiens, UniProt P00797)
T1 construct: human renal renin, free from acid proteolytic activity; from tissue
T1 sequence (P00797 67-406): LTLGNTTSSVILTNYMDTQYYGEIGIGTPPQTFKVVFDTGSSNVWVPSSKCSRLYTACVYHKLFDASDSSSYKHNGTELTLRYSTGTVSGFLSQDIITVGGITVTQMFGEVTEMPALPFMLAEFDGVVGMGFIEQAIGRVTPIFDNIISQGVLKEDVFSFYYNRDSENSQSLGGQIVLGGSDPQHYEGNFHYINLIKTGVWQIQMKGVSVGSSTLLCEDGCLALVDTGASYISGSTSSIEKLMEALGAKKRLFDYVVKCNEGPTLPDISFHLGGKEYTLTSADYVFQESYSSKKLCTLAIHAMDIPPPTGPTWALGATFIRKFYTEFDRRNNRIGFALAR
Assay: in vitro inhibition of human renal renin (angiotensin I formed measured by radioimmunoassay)
Type: biochemical
Conditions: human renal renin with renin substrate (human angiotensinogen), 37° C., pH 6.0

Row | SMILES | IC50
1 | CCOC(=O)N[C@@H](Cc1ccccc1)C(=O)N[C@@H](CC(C)C)C(=O)N[C@@H](CC1CCCCC1)C(O)C(O)C(O)C(C)C (single isomer, unassigned) [Example 36A] | 30 nM
2 | CCOC(=O)N[C@@H](Cc1ccccc1)C(=O)N[C@@H](CC(C)C)C(=O)N[C@@H](CC1CCCCC1)C(O)C(O)C(O)C(C)C (single isomer, unassigned) [Example 36B] | 10 nM
3 | CC(C)CCC(=O)NC[C@H](O)[C@H](O)[C@H](CC1CCCCC1)NC(=O)[C@H](Cc1c[nH]cn1)NC(=O)[C@H](Cc1ccccc1)NC(=O)OC(C)(C)C [Example 14, Boc-Phe-His Amide of (2S,3R,4S)-1-(3-Methylbutylcarbonylamino)-2,3-dihydroxy-4-amino-5-cyclohexylpentane] | 4 nM
4 | CC(C)CCC(=O)NC[C@H](O)[C@H](O)[C@H](CC1CCCCC1)NC(=O)C(Cc1cc[nH]n1)NC(=O)[C@H](Cc1ccccc1)NC(=O)OC(C)(C)C (stereo partly drawn) [Example 15, Boc-Phe-d,l-3-pyrazolylalanine Amide of (2S,3R,4S)-1-(3-Methylbutylcarbonylamino)-2,3-dihydroxy-4-amino-5-cyclohexylpentane] | 6 nM
5 | CC(C)CS(=O)(=O)NC[C@H](O)[C@H](O)[C@H](CC1CCCCC1)NC(=O)[C@H](Cc1c[nH]cn1)NC(=O)[C@H](Cc1ccccc1)NC(=O)OC(C)(C)C [Example 16, Boc-Phe-His Amide of (2S,3R,4S)-1-(Isobutylsulfonylamino)-2,3-dihydroxy-4-amino-5-cyclohexylpentane] | 10 nM
6 | CC(C)(C)OC(=O)N[C@@H](Cc1ccccc1)C(=O)N[C@@H](Cc1c[nH]cn1)C(=O)N[C@@H](CC1CCCCC1)[C@@H](O)[C@@H](O)CN=[N+]=[N-] [Example 17, Boc-Phe-His Amide of (2S,3R,4S)-1-Azido-2,3-dihydroxy-4-amino-5-cyclohexlpentane] | 0.4 nM
7 | COc1ccc(C[C@H](NC(=O)OC(C)(C)C)C(=O)N[C@@H](Cc2c[nH]cn2)C(=O)N[C@@H](CC2CCCCC2)[C@@H](O)[C@@H](O)CN=[N+]=[N-])cc1 [Example 19, Boc-(O-methyl)Tyr-His Amide of (2S,3R,4S)-1-Azido-2,3-dihydroxy-4-amino-5-cyclohexylpentane] | 0.65 nM
8 | C[C@H](NC(=O)[C@H](Cc1ccccc1)NC(=O)OC(C)(C)C)C(=O)N[C@@H](CC1CCCCC1)[C@@H](O)[C@@H](O)CN=[N+]=[N-] [Example 20, Boc-Phe-Ala-OH Amide of (2S,3R,4S)-1-Azido-2,3-dihydroxy-4-amino-5-cyclohexylpentane] | 10 nM
9 | C[C@H](NC(=O)[C@H](Cc1ccccc1)NC(=O)OC(C)(C)C)C(=O)N[C@@H](CC1CCCCC1)[C@@H](O)[C@@H](O)CN [Example 31, Boc-Phe-Ala Amide (4-amino) of (2S,3R,4S)-1,4-Diamino-2,3-dihydroxy-5-cyclohexylpentane] | 55 nM
10 | CCOC(=O)N[C@@H](CC(C)C)C(=O)N[C@@H](CC(C)C)C(=O)N[C@@H](CC1CCCCC1)C(O)C(O)CO (stereo partly drawn) [Example 32, Ethoxycarbonyl-Leu-Leu Amide of (2RS,3RS,4S)-Amino-5-cyclohexyl-1,2,3-trihydroxypentane] | 50 nM
11 | COc1ccc(C[C@H](NC(=O)C(C)C)C(=O)N[C@@H](Cc2c[nH]cn2)C(=O)N[C@@H](CC2CCCCC2)[C@@H](O)[C@@H](O)CN=[N+]=[N-])cc1 [Example 47, Isobutyryl (O-methyl)Tyr-His Amide of (2S,3R,4S)-1-Azido-2,3-dihydroxy-4-amino-5-cyclohexylpentane] | 2 nM
12 | CC(C)C(=O)N[C@H](C(=O)N[C@@H](Cc1c[nH]cn1)C(=O)N[C@@H](CC1CCCCC1)[C@@H](O)[C@@H](O)CN=[N+]=[N-])[C@@H](C)OCc1ccccc1 [Example 52, Isobutyryl (O-benzyl)Thr-His Amide of (2S,3R,4S)-1-Azido-2,3-dihydroxy-4-amino-5-cyclohexylpentane] | 4 nM
13 | COc1ccc(C[C@H](NC(=O)N(C)C)C(=O)N[C@@H](Cc2c[nH]cn2)C(=O)N[C@@H](CC2CCCCC2)[C@@H](O)[C@@H](O)CN=[N+]=[N-])cc1 [Example 69, Dimethylaminocarbonyl (O-methyl)Tyr-His Amide of (2S,3R,4S)-1-Azido-2,3-dihydroxy-4-amino-5-cyclohexylpentane] | 10 nM
14 | CC(C)(CC(=O)N[C@@H](Cc1ccccc1)C(=O)N[C@@H](Cc1c[nH]cn1)C(=O)N[C@@H](CC1CCCCC1)[C@@H](O)[C@@H](O)CN=[N+]=[N-])CC(=O)OC(C)(C)C [Example 70, (4-t-Butyloxycarbonyl-3,3-dimethyl)butanoyl-Phe-His Amide of (2S,3R,4S)-1-Azido-2,3-dihydroxy-4-amino-5-cyclohexylpentane] | 1 nM
15 | COc1ccc(C[C@H](NC(=O)N2CCOCC2)C(=O)N[C@@H](Cc2c[nH]cn2)C(=O)N[C@@H](CC2CCCCC2)[C@@H](O)[C@@H](O)CN=[N+]=[N-])cc1 [Example 72, Morpholinocarbonyl (O-methyl)Tyr-His Amide of (2S,3R,4S)-1-Azido-2,3-dihydroxy-4-amino-5-cyclohexylpentane] | 4 nM
